pIC50: −log10 of the molar value. Read-outs that look alike come from different tables or passages of the source.
How the values were obtained:
human MET kinase Y1230H = target: T1, human MET kinase Y1230H (Homo sapiens, UniProt P08581, Y1230H); assay: c-Met Enzyme Assay, Y1230H mutant; format: binding; conditions: averaged IC50; Y1230H 5 nM; 60-minute incubation at 22° C.; read-out: Y1230 H IC50
T1 construct: GST-tagged recombinant human MET kinase domain; purchased Signal Chem
Protocol: The affinity of compound binding to wild type and mutant human MET kinases was measured using Invitrogen's LanthaScreen™ Eu Kinase Binding technology. Briefly, GST-tagged recombinant human MET kinase domain from Signal Chem (see Table 8 below for concentration in assay) was incubated with 50 nM Alexa-Fluor® Tracer 236 (Invitrogen Cat No. PR9078A) and 2 nM Europium-anti-GST (Invitrogen Cat. No. A15116) along with test compound in a buffer consisting of 25 mM HEPES, pH 7.4, 10 mM MgCl2, 0.01% Triton X-100, 1mM DTT, and 2% DMSO. Compounds were typically prepared in a three-fold serial dilution in DMSO and added to the assay to give the appropriate final concentration. After a 60-minute incubation at 22° C., the reaction was measured using a PerkinElmer EnVision multimode plate reader via TR-FRET dual wavelength detection, and the percent of control (POC) calculated using a ratiometric emission factor. […] The POC values were fit to a 4 parameter logistic curve and the IC50 value is point where the curve crosses 50 POC.

MDR1 (P-gp) = target: T2, MDR1 (P-gp) (Homo sapiens, UniProt P08183); assay: MDR1 LLC-PK1 permeability assay; format: in vitro ADME; conditions: pig, MDR1 transfected LLC-PK1 cells; for Papp at 2 h, 1 μM: permeability coefficient (Papp)
T2 construct: expressed in transfected cells; host or cells: LLC-PK1
T2 sequence (P08183 whole entry): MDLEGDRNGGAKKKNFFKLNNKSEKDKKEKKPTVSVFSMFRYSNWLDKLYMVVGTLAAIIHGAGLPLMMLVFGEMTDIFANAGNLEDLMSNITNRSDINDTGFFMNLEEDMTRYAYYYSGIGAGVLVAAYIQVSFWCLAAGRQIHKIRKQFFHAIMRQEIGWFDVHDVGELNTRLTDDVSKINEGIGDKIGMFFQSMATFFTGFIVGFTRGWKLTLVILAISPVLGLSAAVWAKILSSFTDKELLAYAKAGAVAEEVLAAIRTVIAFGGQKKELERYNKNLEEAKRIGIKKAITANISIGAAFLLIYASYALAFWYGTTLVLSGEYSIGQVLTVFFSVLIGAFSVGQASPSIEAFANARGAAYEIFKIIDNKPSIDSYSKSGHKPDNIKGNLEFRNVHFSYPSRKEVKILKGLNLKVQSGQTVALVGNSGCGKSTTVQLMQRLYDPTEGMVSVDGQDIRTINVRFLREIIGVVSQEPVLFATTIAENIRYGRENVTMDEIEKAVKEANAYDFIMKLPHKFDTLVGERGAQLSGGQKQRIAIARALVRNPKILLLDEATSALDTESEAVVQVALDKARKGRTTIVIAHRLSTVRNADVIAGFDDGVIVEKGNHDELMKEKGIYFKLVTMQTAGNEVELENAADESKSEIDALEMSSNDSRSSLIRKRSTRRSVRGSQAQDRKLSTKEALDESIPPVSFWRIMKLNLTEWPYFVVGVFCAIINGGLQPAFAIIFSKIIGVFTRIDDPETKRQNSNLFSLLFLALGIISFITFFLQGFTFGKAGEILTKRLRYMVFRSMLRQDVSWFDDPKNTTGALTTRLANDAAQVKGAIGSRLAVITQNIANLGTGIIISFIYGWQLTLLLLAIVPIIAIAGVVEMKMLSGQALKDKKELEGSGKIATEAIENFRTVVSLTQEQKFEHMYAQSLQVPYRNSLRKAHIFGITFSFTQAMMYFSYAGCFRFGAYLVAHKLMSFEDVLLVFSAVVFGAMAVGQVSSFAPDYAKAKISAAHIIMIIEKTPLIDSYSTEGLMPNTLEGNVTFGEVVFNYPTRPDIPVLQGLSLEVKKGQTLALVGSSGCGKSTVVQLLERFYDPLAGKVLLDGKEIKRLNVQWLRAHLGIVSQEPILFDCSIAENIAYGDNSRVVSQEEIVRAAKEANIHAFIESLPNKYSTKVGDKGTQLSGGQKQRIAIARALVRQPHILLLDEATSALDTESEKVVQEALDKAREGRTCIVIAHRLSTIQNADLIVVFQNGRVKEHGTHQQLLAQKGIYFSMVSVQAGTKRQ
Protocol: MDR1 transfected LLC-PK1 cells were cultured and plated according to manufacturer's recommendations with the exception that the passage media contained only 2% fetal bovine serum to extend passage time out to seven days.
Both positive and negative controls were used to assess functionality of P-gp efflux in the assay. Stock solutions for assay controls and the test article were prepared in DMSO for final test concentrations of 10 and 1 μM, respectively. Final organic concentration in the assay was 1%. All dosing solutions contained 10 μM lucifer yellow to monitor LLC-PK1 cell monolayer integrity.
For the apical to basolateral determination (A to B), 75 μL of the test article in transport buffer were added to the apical side of the individual transwells and 250 μL of basolateral media, without compound or lucifer yellow, were added to each well. For the basolateral to apical determination (B to A), 250 μL of test article in transport buffer were added to each well and 75 μL transport buffer, without compound or lucifer yellow, were added to each transwell. All tests were performed in triplicate, and each compound was tested for both apical to basolateral and basolateral to apical transport. The plates were incubated for 2 hours on a Lab-Line Instruments Titer Orbital Shaker (VWR, West Chester, Pa.) at 50 rpm and 37° C. with 5% CO2. All culture plates were removed from the incubator and 50 μL of media were removed from the apical and basolateral portion of each well and added to 150 μL of 1 μM labetalol in 2:1 acetonitrile (acetonitrile): H2O, v/v.
The plates were read using a Molecular Devices (Sunnyvale, Calif.) Gemini Fluorometer to evaluate the lucifer yellow concentrations at excitation/emission wavelengths of 425/535 nm. These values were accepted when found to be below 2% for apical to basolateral and 5% basolateral to apical flux across the MDR1-transfected LLC-PK1-transfected cell monolayers. The plates were sealed and the contents of each well analyzed by LC-MS/MS. The compound concentrations were determined from the ratio of the peak areas of the compound to the internal standard (labetalol) in comparison to the dosing solution.
The LC-MS/MS system was comprised of an HTS-PAL autosampler (Leap Technologies, Carrboro, N.C.), an HP1200 HPLC (Agilent, Palo Alto, Calif.), and a MDS Sciex 4000 Q Trap system (Applied Biosystems, Foster City, Calif.). […] The total run time, including re-equilibration, for a single injection was 1.2 minutes. Mass spectrometric detection of the analytes was accomplished using the ion spray positive mode. Analyte responses were measured by multiple reaction monitoring (MRM) of transitions unique to each compound (the protonated precursor ion and selected product ions for each test article and m/z 329 to m/z 162 for labetalol, the internal standard).
The permeability coefficient (Papp) is calculated from the following equation: […]
where Cd, V, t and C0 are the detected concentration (μM), the volume on the dosing side (mL), the incubation time (s) and the initial dosing concentration (μM), respectively. The calculations for Papp were made for each replicate and then averaged. In this assay, a compound is defined has having high permeability if the permeability is greater than 8×10^−6 cm/sec, a compound is defined has having medium permeability if the permeability is from 2×10^−6 cm/sec to 8×10^−6 cm/sec, and a compound is defined has having low permeability if the permeability is less than 2×10^−6 cm/sec.
An efflux ratio was calculated from the mean apical to basolateral (A-B) Papp data and basolateral to apical (B-A) Papp data:
Efflux ratio=Papp(B−A)/Papp(A−B)

[1] = LLC-PK1, efflux ratio = Papp(B-A)/Papp(A-B), read-out: MDR1 Pe Ratio
[2] = LLC-PK1, Papp(B−A)/Papp(A−B), test article 1 μM, 2 hours, 37° C., read-out: Efflux ratio

T1 sequence (P08581 1078-1345 Y1230H): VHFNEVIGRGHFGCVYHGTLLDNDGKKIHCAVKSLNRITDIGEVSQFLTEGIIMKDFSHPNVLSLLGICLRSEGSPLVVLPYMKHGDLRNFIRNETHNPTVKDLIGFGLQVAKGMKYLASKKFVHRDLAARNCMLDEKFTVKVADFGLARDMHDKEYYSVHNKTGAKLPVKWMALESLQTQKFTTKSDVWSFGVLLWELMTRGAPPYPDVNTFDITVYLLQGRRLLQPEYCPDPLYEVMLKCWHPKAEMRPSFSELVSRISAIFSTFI

COc1cc2nccc(Oc3cnc(NC(=O)c4cn(C(C)C)cc(-c5ccc(F)cc5)c4=O)nc3)c2cc1OC [Example 54, N-(5-((6,7-dimethoxyquinolin-4-yl)oxy)pyrimidin-2-yl)-5-(4-fluorophenyl)-1-isopropyl-4-oxo-1,4-dihydropyridine-3-carboxamide]
pIC50 (human MET kinase Y1230H): 8.14
efflux ratio at 2 h, 1 μM (MDR1 (P-gp); [1]): 114
Papp at 2 h, 1 μM (MDR1 (P-gp)): 12 ×10⁻⁶ cm/s

COc1cc2nccc(Oc3ccc(NC(=O)c4cn(CC(=O)N5CCOCC5)cc(-c5ccc(F)cc5F)c4=O)nc3)c2cc1OC [Example 15, 5-(2,4-difluorophenyl)-N-(5-((6,7-dimethoxyquinolin-4-yl)oxy)pyridin-2-yl)-1-(2-morpholino-2-oxoethyl)-4-oxo-1,4-dihydropyridine-3-carboxamide]
pIC50 (human MET kinase Y1230H): 7.43
efflux ratio at 2 h, 1 μM (MDR1 (P-gp); [1]): 135
Papp at 2 h, 1 μM (MDR1 (P-gp)): 2 ×10⁻⁶ cm/s

COCCn1cc(C(=O)Nc2ccc(Oc3ccnc4cc(OC)c(OC)cc34)cn2)c(=O)c(-c2ccc(F)cc2)c1 [Example 7, N-(5((6,7-dimethoxyquinolin-4-yl)oxy)pyridin-2-yl)-5-(4-fluorophenyl)-1-(2-methoxyethyl)-4-oxo-1,4-dihydropyridine-3-carboxamide]
pIC50 (human MET kinase Y1230H): 8.27
efflux ratio at 2 h, 1 μM (MDR1 (P-gp); [1]): 8.2
Papp at 2 h, 1 μM (MDR1 (P-gp)): 11 ×10⁻⁶ cm/s

CCn1cc(C(=O)Nc2ccc(Oc3ccnc4cc(OC)c(OC)cc34)cn2)c(=O)c(-c2ccc(F)cc2)c1 [Example 3]
pIC50 (human MET kinase Y1230H): 8.19
efflux ratio at 2 h, 1 μM (MDR1 (P-gp); [1]): 4.3
Papp at 2 h, 1 μM (MDR1 (P-gp)): 10 ×10⁻⁶ cm/s

CNC(=O)Cn1cc(C(=O)Nc2ccc(Oc3ccnc4cc(OC)c(OC)cc34)cn2)c(=O)c(-c2ccc(F)cc2)c1 [Example 22]
pIC50 (human MET kinase Y1230H): 8.37
efflux ratio at 2 h, 1 μM (MDR1 (P-gp); [1]): 80
Papp at 2 h, 1 μM (MDR1 (P-gp)): 2 ×10⁻⁶ cm/s

COc1ccc2nccc(Oc3ccc(NC(=O)c4cn(C)cc(-c5ccc(F)cc5)c4=O)nc3)c2c1 [Example 41, 5-(4-fluorophenyl)-N-(5-((6-methoxyquinolin-4yl)oxy)pyridin-2-yl)-1-methyl-4-oxo-1,4-dihydropyridine-3-carboxamide]
pIC50 (human MET kinase Y1230H): 6.48
efflux ratio at 2 h, 1 μM (MDR1 (P-gp); [2]): 3.5
efflux ratio at 2 h, 1 μM (MDR1 (P-gp); [1]): 2.5
Papp at 2 h, 1 μM (MDR1 (P-gp)): 7 ×10⁻⁶ cm/s

CCOc1ccc2nccc(Oc3ccc(NC(=O)c4cn(C(C)C)cc(-c5ccc(F)cc5)c4=O)nc3)c2c1 [Example 51, N-(5-((6-ethoxyquinolin-4-yl)oxy)pyridin-2-yl)-5-(4-fluorophenyl)-1-isopropyl-4-oxo-1,4-dihydropyridine-3-carboxamide]
pIC50 (human MET kinase Y1230H): 6.70
efflux ratio at 2 h, 1 μM (MDR1 (P-gp); [2]): 3.5
efflux ratio at 2 h, 1 μM (MDR1 (P-gp); [1]): 2
Papp at 2 h, 1 μM (MDR1 (P-gp)): 3 ×10⁻⁶ cm/s

COc1cc2ncc(C#N)c(Oc3ccc(NC(=O)c4cn(C(C)C)cc(-c5ccc(F)cc5)c4=O)nc3)c2cc1OC [Example 57, N-(5-((3-cyano-6,7-dimethoxyquinolin-4-yl)oxy)pyridin-2-yl)-5-(4-fluorophenyl)-1-isopropyl-4-oxo-1,4-dihydropyridine-3-carboxamide]
pIC50 (human MET kinase Y1230H): 6.10
efflux ratio at 2 h, 1 μM (MDR1 (P-gp); [2]): 3.5
efflux ratio at 2 h, 1 μM (MDR1 (P-gp); [1]): 2.5
Papp at 2 h, 1 μM (MDR1 (P-gp)): 15 ×10⁻⁶ cm/s

COc1cc2nccc(Oc3ccc(NC(=O)c4cn(C(C)C)cc(-c5ccc(F)cc5OC)c4=O)nc3)c2cc1OC [Example 32, N-(5-((6,7-dimethoxyquinolin-4yl)oxy)pyridin-2-yl)-5-(4-fluoro-2-methoxyphenyl)-1-isopropyl-4-oxo-1,4-dihydropyridine-3-carboxamide]
pIC50 (human MET kinase Y1230H): 7.92
efflux ratio at 2 h, 1 μM (MDR1 (P-gp); [1]): 7.1
Papp at 2 h, 1 μM (MDR1 (P-gp)): 14 ×10⁻⁶ cm/s

COc1cc2nccc(Oc3ccc(NC(=O)c4cn(CCN(C)C)cc(-c5ccc(F)c(F)c5)c4=O)nc3)c2cc1OC [Example 43, 5-(3,4-difluorophenyl)-N-(5-((6,7-dimethoxyquinolin-4-yl)oxy)pyridin-2-yl)-1-]
pIC50 (human MET kinase Y1230H): 8.54
efflux ratio at 2 h, 1 μM (MDR1 (P-gp); [1]): 13

CCn1cc(C(=O)Nc2ccc(Oc3ccnc4ccc(OC)cc34)cn2)c(=O)c(-c2ccc(F)cc2)c1 [Example 39, 1-ethyl-5-(4-fluorophenyl)-N-(5-((6-methoxyquinolin-4-yl)oxy)pyridin-2-yl)-4-oxo-1,4-dihydropyridine-3-carboxamide]
pIC50 (human MET kinase Y1230H): 6.68
efflux ratio at 2 h, 1 μM (MDR1 (P-gp); [2]): 3.5
efflux ratio at 2 h, 1 μM (MDR1 (P-gp); [1]): 0.9
Papp at 2 h, 1 μM (MDR1 (P-gp)): 7 ×10⁻⁶ cm/s

COc1cc2nccc(Oc3ccc(NC(=O)c4cn(C(C)C)c(C)c(-c5ccc(F)cc5)c4=O)nc3)c2cc1OC [Example 27, N-(5-((6,7-dimethoxyquinolin-4yl)oxy)pyridin-2-yl)-5-(4-fluorophenyl)-1-isopropyl-6-methyl-4-oxo-1,4-dihydropyridine-3-carboxamide]
pIC50 (human MET kinase Y1230H): 8.64
efflux ratio at 2 h, 1 μM (MDR1 (P-gp); [1]): 5.5
Papp at 2 h, 1 μM (MDR1 (P-gp)): 16 ×10⁻⁶ cm/s

COc1cc2nccc(Oc3ccc(NC(=O)c4cn(CC(=O)N5CCCC5)cc(-c5ccc(F)cc5F)c4=O)nc3)c2cc1OC [Example 14]
pIC50 (human MET kinase Y1230H): 7.65
efflux ratio at 2 h, 1 μM (MDR1 (P-gp); [1]): 125
Papp at 2 h, 1 μM (MDR1 (P-gp)): 10 ×10⁻⁶ cm/s

CCC(CC)n1cc(C(=O)Nc2ccc(Oc3ccnc4cc(OC)c(OC)cc34)cn2)c(=O)c(-c2ccc(F)cc2F)c1 [Example 16, 5-(2,4-difluorophenyl)-N-(5-((6,7-dimethoxyquinolin-4yl)oxy)pyridin-2-yl)-4-oxo-1-(pentan-3-yl)-1,4-dihydropyridine-3-carboxamide]
pIC50 (human MET kinase Y1230H): 8.11
efflux ratio at 2 h, 1 μM (MDR1 (P-gp); [2]): 3.5
efflux ratio at 2 h, 1 μM (MDR1 (P-gp); [1]): 2
Papp at 2 h, 1 μM (MDR1 (P-gp)): 4 ×10⁻⁶ cm/s

COc1cc2nc(C)cc(Oc3ccc(NC(=O)c4cn(C(C)C)cc(-c5ccc(F)cc5)c4=O)nc3)c2cc1OC [Example 53, N-(5-((6,7-dimethoxy-2-methylquinolin-4-yl)oxy)pyridin-2-yl)-5-(4-fluorophenyl)-1-isopropyl-4-oxo-1,4-dihydropyridine-3-carboxamide]
pIC50 (human MET kinase Y1230H): 5.78
efflux ratio at 2 h, 1 μM (MDR1 (P-gp); [1]): 3.4
Papp at 2 h, 1 μM (MDR1 (P-gp)): 5 ×10⁻⁶ cm/s

COc1cc2nccc(Oc3ccc(NC(=O)c4cn(CC(=O)N(C)C)cc(-c5ccc(F)cc5F)c4=O)nc3)c2cc1OC [Example 13, 5-(2,4-difluorophenyl)-N-(5((6,7-dimethoxyquinolin-4-yl)oxy)pyridin-2-yl)-1-(2-(dimethylamino)-2-oxoethyl)-4-oxo-1,4-dihydropyridine-3-carboxamide]
pIC50 (human MET kinase Y1230H): 8.24
efflux ratio at 2 h, 1 μM (MDR1 (P-gp); [1]): 112
Papp at 2 h, 1 μM (MDR1 (P-gp)): 6 ×10⁻⁶ cm/s

COc1cc2nccc(Oc3ccc(NC(=O)c4cn(CC(=O)N(C)C)cc(-c5ccc(Cl)cc5)c4=O)nc3)c2cc1OC [Example 25]
pIC50 (human MET kinase Y1230H): 7.67
efflux ratio at 2 h, 1 μM (MDR1 (P-gp); [1]): 136
Papp at 2 h, 1 μM (MDR1 (P-gp)): 6.4 ×10⁻⁶ cm/s

COc1cc2nccc(Oc3cnc(NC(=O)c4cn(C(C)C)c(C)c(-c5ccc(F)cc5)c4=O)nc3)c2cc1OC [Example 55, N-(5-((6,7-dimethoxyquinolin-4-yl)oxy)pyrimidin-2-yl)-5-(4-fluorophenyl)-1-isopropyl-6-methyl-4-oxo-1,4-dihydropyridine-3-carboxamide]
pIC50 (human MET kinase Y1230H): 8.55
efflux ratio at 2 h, 1 μM (MDR1 (P-gp); [1]): 144
Papp at 2 h, 1 μM (MDR1 (P-gp)): 8 ×10⁻⁶ cm/s
